In the kinase profiling compilation of Christmann-Franck et al. (2016):

Key:
Test in all cases: radiometric filter-binding kinase assay, Kinase HotSpot
Conditions in all cases: compound 0.5 µM; ATP 10 µM
FLT3 (human) = FLT3 (human) (UniProt P36888)
[1] = tested on: FLT4 (human), P35916 [Q890H]
CHEK1 (human) = CHEK1 (human) (UniProt O14757)
WNK2 (human) = WNK2 (human) (UniProt Q9Y3S1)
DSTYK (human) = DSTYK (human) (UniProt Q6XUX3)
OXSR1 (human) = OXSR1 (human) (UniProt O95747)
SRPK2 (human) = SRPK2 (human) (UniProt P78362)
TLK2 (human) = TLK2 (human) (UniProt Q86UE8)
NEK3 (human) = NEK3 (human) (UniProt P51956)
DAPK1 (human) = DAPK1 (human) (UniProt P53355)
NLK (human) = NLK (human) (UniProt Q9UBE8)
BRSK2 (human) = BRSK2 (human) (UniProt Q8IWQ3)
CDK4 CCND3 (human) = CDK4 CCND3 (human) (UniProt P30281+P11802)
STK38 (human) = STK38 (human) (UniProt Q15208)
MAPK1 (human) = MAPK1 (human) (UniProt P28482)
SIK2 (human) = SIK2 (human) (UniProt Q9H0K1)
CAMK2D (human) = CAMK2D (human) (UniProt Q13557)
PDGFRA (human) = PDGFRA (human) (UniProt P16234)
AKT2 (human) = AKT2 (human) (UniProt P31751)
DCLK2 (human) = DCLK2 (human) (UniProt Q8N568)
GSG2 (human) = GSG2 (human) (UniProt Q8TF76)
STK4 (human) = STK4 (human) (UniProt Q13043)
[2] = tested on: MKNK1 (human), Q9BUB5 [T385D; 165-205 del]
CDK7 CCNH MNAT1 (human) = CDK7 CCNH MNAT1 (human) (UniProt P50613+P51948+P51946)
DYRK3 (human) = DYRK3 (human) (UniProt O43781)
CDK4 CCND1 (human) = CDK4 CCND1 (human) (UniProt P24385+P11802)
ULK3 (human) = ULK3 (human) (UniProt Q6PHR2)
NUAK2 (human) = NUAK2 (human) (UniProt Q9H093)
MYO3B (human) = MYO3B (human) (UniProt Q8WXR4)
PHKG2 (human) = PHKG2 (human) (UniProt P15735)
EPHA6 (human) = EPHA6 (human) (UniProt Q9UF33)
TTK (human) = TTK (human) (UniProt P33981)
MATK (human) = MATK (human) (UniProt P42679)
PBK (human) = PBK (human) (UniProt Q96KB5)
ROCK1 (human) = ROCK1 (human) (UniProt Q13464)
ALK (human) = ALK (human) (UniProt Q9UM73)
ADRBK2 (human) = ADRBK2 (human) (UniProt P35626)
IRAK1 (human) = IRAK1 (human) (UniProt P51617)
RPS6KA3 KD1 KD2 (human) = RPS6KA3 KD1 KD2 (human) (UniProt P51812)
TNK2 (human) = TNK2 (human) (UniProt Q07912)
MARK1 (human) = MARK1 (human) (UniProt Q9P0L2)
WEE1 (human) = WEE1 (human) (UniProt P30291)

MATK (human), sequence (P42679 whole entry, looked up): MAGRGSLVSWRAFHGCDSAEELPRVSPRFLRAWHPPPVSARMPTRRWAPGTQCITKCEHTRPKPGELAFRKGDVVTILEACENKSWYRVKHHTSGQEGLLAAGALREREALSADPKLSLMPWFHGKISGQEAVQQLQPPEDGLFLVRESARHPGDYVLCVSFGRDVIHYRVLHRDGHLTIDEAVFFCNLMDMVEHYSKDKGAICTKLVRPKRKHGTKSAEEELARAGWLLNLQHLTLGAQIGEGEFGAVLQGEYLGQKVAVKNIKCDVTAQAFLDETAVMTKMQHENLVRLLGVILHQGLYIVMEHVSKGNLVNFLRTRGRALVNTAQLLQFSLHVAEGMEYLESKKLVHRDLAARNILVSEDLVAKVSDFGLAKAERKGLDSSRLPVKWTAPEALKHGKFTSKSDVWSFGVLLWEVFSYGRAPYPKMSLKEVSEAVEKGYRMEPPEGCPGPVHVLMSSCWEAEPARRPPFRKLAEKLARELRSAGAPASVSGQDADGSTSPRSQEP
IRAK1 (human), sequence (P51617 whole entry, looked up): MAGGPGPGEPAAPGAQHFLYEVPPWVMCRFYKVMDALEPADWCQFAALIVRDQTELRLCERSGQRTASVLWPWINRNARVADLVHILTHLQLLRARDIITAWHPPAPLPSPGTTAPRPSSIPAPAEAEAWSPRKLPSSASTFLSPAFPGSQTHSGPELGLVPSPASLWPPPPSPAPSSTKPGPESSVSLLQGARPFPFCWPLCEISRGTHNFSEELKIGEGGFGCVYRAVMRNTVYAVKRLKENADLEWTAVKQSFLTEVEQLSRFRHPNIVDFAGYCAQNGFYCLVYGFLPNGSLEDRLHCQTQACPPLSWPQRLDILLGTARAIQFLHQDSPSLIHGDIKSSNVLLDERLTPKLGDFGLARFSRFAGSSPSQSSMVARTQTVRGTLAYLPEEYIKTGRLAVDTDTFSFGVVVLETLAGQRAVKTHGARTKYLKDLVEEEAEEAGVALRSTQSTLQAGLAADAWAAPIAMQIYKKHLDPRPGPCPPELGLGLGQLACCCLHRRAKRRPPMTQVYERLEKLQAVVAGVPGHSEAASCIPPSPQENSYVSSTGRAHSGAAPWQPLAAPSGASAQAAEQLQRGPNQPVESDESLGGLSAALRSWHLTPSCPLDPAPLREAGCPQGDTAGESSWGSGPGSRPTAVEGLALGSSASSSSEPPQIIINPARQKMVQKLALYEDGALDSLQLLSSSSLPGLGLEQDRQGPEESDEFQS
ADRBK2 (human), sequence (P35626 whole entry, looked up): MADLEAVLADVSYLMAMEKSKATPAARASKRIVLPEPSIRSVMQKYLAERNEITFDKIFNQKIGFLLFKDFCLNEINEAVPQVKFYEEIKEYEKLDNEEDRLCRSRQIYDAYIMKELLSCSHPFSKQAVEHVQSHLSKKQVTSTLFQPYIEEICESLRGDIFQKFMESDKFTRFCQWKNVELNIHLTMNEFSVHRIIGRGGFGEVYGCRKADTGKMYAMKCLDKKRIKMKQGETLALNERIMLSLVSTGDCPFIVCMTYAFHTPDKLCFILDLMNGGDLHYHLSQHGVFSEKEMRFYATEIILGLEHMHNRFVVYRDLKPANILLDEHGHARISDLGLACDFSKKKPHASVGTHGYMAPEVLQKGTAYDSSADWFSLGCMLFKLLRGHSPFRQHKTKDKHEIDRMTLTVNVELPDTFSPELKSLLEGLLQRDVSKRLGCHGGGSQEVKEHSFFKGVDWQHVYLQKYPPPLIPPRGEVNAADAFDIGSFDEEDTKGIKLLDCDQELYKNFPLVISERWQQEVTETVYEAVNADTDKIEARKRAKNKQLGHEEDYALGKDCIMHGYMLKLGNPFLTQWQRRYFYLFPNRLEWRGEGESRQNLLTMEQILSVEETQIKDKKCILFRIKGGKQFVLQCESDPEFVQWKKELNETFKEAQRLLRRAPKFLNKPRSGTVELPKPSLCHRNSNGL
ULK3 (human), sequence (Q6PHR2 whole entry, looked up): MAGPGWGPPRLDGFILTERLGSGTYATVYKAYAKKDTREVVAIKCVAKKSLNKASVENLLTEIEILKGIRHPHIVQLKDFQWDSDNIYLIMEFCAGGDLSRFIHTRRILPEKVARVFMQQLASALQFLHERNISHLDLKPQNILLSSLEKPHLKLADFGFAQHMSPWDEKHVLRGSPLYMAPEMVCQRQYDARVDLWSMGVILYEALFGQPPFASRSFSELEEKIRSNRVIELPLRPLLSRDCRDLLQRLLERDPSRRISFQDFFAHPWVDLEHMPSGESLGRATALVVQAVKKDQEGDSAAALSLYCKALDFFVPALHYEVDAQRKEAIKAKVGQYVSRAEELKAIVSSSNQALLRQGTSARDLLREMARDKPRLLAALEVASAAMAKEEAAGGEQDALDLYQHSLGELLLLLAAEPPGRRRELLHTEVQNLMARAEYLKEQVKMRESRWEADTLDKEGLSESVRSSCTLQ
MAPK1 (human), sequence (P28482 whole entry, looked up): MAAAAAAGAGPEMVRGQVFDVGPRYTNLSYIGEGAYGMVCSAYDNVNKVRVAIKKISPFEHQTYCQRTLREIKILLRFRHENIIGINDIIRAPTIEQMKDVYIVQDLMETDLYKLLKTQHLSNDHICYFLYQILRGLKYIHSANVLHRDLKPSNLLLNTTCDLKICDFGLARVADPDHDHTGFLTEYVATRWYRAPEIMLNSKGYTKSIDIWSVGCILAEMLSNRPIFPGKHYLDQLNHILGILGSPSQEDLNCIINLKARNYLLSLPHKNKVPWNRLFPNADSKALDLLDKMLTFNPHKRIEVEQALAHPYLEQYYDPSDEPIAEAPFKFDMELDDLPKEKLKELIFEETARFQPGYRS
ROCK1 (human), sequence (Q13464 whole entry, looked up): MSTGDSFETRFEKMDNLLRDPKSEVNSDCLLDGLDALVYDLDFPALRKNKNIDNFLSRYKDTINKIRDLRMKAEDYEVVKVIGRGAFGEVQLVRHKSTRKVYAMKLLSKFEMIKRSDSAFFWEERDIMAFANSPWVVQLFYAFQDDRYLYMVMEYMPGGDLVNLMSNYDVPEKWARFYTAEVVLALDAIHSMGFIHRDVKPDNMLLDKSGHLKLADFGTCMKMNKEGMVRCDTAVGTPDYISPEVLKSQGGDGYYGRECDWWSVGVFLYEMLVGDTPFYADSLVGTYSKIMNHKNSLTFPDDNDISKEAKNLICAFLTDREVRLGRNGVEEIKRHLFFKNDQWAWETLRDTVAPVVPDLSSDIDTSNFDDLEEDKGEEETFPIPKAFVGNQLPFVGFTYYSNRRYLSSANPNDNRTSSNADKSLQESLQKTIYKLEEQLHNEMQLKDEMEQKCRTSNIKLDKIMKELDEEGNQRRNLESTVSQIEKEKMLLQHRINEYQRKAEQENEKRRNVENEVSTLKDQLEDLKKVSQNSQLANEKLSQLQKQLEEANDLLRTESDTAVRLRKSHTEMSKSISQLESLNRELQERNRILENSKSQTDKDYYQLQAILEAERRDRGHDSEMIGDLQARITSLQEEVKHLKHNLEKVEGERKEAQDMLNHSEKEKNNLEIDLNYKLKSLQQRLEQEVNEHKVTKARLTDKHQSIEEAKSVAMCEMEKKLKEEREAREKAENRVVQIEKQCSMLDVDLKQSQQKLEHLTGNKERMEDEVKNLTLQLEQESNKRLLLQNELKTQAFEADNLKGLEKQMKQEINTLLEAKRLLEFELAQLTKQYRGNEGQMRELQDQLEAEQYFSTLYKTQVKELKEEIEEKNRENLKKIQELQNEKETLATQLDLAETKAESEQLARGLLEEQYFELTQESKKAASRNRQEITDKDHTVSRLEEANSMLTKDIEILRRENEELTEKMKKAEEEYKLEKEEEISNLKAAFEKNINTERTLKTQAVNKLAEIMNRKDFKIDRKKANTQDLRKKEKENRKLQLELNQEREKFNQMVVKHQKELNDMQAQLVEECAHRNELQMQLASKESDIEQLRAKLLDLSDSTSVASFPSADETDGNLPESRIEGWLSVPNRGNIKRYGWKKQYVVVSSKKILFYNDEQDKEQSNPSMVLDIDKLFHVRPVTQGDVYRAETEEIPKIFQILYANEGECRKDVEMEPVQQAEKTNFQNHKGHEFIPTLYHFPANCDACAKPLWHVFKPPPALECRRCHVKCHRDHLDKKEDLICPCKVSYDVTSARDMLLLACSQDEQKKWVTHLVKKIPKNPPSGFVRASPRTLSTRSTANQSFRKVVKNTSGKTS
OXSR1 (human), sequence (O95747 whole entry, looked up): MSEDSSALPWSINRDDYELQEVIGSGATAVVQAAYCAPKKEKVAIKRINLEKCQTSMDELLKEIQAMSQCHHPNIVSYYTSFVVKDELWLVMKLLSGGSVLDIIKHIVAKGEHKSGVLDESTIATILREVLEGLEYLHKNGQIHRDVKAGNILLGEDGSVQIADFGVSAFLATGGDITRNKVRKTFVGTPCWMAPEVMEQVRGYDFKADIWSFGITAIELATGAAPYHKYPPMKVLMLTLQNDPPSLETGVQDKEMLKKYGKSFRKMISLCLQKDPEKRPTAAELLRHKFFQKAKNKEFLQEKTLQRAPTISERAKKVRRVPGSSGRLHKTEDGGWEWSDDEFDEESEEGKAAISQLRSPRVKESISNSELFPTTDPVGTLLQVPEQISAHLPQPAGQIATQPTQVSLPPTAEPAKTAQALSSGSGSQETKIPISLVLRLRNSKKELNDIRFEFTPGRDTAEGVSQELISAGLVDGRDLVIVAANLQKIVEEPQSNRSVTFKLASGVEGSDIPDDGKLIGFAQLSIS
PBK (human), sequence (Q96KB5 whole entry, looked up): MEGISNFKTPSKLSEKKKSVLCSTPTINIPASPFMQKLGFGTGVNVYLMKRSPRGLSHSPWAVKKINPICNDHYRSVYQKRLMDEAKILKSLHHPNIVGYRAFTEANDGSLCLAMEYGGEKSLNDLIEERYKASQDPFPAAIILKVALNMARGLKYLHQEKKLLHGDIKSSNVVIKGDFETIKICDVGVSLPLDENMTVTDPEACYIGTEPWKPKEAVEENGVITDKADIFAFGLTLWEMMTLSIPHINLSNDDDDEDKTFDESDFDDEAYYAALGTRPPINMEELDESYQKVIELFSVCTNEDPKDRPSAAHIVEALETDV

Molecule `COc1cc(Nc2c(C#N)cnc3cc(OCCCN4CCN(C)CC4)c(OC)cc23)c(Cl)cc1Cl` has a residual activity (FLT3 (human)) of 30.3%, a residual activity [1] of 44.1% and a residual activity (CHEK1 (human)) of 38.9%. For the same molecule, the residual activity (WNK2 (human)) was 94.2%, the residual activity (DSTYK (human)) was 104% and the residual activity (OXSR1 (human)) was 100%. The residual activity (SRPK2 (human)) was 101%, the residual activity (TLK2 (human)) was 92.2% and the residual activity (NEK3 (human)) was 85.9%. It also gave a residual activity (DAPK1 (human)) of 106%, a residual activity (NLK (human)) of 101% and a residual activity (BRSK2 (human)) of 94.2%. It also gave a residual activity (CDK4 CCND3 (human)) of 103%, a residual activity (STK38 (human)) of 85.1% and a residual activity (MAPK1 (human)) of 93.7%. It also gave a residual activity (SIK2 (human)) of 1.93%, a residual activity (CAMK2D (human)) of 94.6% and a residual activity (PDGFRA (human)) of 86.9%. It also gave a residual activity (AKT2 (human)) of 104%, a residual activity (DCLK2 (human)) of 98.4% and a residual activity (GSG2 (human)) of 65.6%. For the same molecule, the residual activity (STK4 (human)) was 7.4%, the residual activity [2] was 96.9% and the residual activity (CDK7 CCNH MNAT1 (human)) was 113%. For the same molecule, the residual activity (DYRK3 (human)) was 91.8%, the residual activity (CDK4 CCND1 (human)) was 97.1% and the residual activity (ULK3 (human)) was 100%. For the same molecule, the residual activity (NUAK2 (human)) was 59.5%, the residual activity (MYO3B (human)) was 40.3% and the residual activity (PHKG2 (human)) was 103%. The residual activity (EPHA6 (human)) was 4.38%, the residual activity (TTK (human)) was 110% and the residual activity (MATK (human)) was 140%. It also gave a residual activity (PBK (human)) of 104%, a residual activity (ROCK1 (human)) of 105% and a residual activity (ALK (human)) of 66%. It also gave a residual activity (ADRBK2 (human)) of 99.2%, a residual activity (IRAK1 (human)) of 91.3% and a residual activity (RPS6KA3 KD1 KD2 (human)) of 80.1%. For the same molecule, the residual activity (TNK2 (human)) was 3.54%, the residual activity (MARK1 (human)) was 109% and the residual activity (WEE1 (human)) was 40.5%.
`N#Cc1c[nH]c2c[nH]/c(=N\Cc3cccnc3)cc2/c1=N\c1ccc(F)c(Cl)c1` gave a residual activity (FLT3 (human)) of 83.6%, a residual activity [1] of 96.2% and a residual activity (CHEK1 (human)) of 90.2%. For the same molecule, the residual activity (WNK2 (human)) was 91.1%, the residual activity (DSTYK (human)) was 87.3% and the residual activity (OXSR1 (human)) was 87.7%. For the same molecule, the residual activity (SRPK2 (human)) was 101%, the residual activity (TLK2 (human)) was 106% and the residual activity (NEK3 (human)) was 56%. The residual activity (DAPK1 (human)) was 102%, the residual activity (NLK (human)) was 88% and the residual activity (BRSK2 (human)) was 100%. The residual activity (CDK4 CCND3 (human)) was 101%, the residual activity (STK38 (human)) was 93.9% and the residual activity (MAPK1 (human)) was 105%. For the same molecule, the residual activity (SIK2 (human)) was 97.6%, the residual activity (CAMK2D (human)) was 103% and the residual activity (PDGFRA (human)) was 94.3%. The residual activity (AKT2 (human)) was 101%, the residual activity (DCLK2 (human)) was 97.2% and the residual activity (GSG2 (human)) was 82.5%. It also gave a residual activity (STK4 (human)) of 100%, a residual activity [2] of 73.2% and a residual activity (CDK7 CCNH MNAT1 (human)) of 87.4%. For the same molecule, the residual activity (DYRK3 (human)) was 96.3%, the residual activity (CDK4 CCND1 (human)) was 97.6% and the residual activity (ULK3 (human)) was 72%. The residual activity (NUAK2 (human)) was 135%, the residual activity (MYO3B (human)) was 87.9% and the residual activity (PHKG2 (human)) was 88.3%. For the same molecule, the residual activity (EPHA6 (human)) was 76.2%, the residual activity (TTK (human)) was 99.1% and the residual activity (MATK (human)) was 95.9%. It also gave a residual activity (PBK (human)) of 84.8%, a residual activity (ROCK1 (human)) of 99.8% and a residual activity (ALK (human)) of 107%. For the same molecule, the residual activity (ADRBK2 (human)) was 100%, the residual activity (IRAK1 (human)) was 114% and the residual activity (RPS6KA3 KD1 KD2 (human)) was 99.1%. The residual activity (TNK2 (human)) was 89.9%, the residual activity (MARK1 (human)) was 91.6% and the residual activity (WEE1 (human)) was 74.3%.
